Experimental data as given in PubChem BioAssay (NCI).
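The compound was tested at five concentrations on cells cultured in 96-well plates, with a 48-hour exposure period. At the GI50, growth is halved. At the TGI there is no net growth.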

What was measured:
Experiment in all cases: growth of human tumour cells (NCI), 48 h
786-0 renal = tested on: 786-0 renal
A549 NSCLC = tested on: A549 NSCLC
ACHN renal = tested on: ACHN renal
BT-549 breast = tested on: BT-549 breast
CAKI-1 renal = tested on: CAKI-1 renal
CCRF-CEM leukemia = tested on: CCRF-CEM leukemia
COLO 205 colon = tested on: COLO 205 colon
DU-145 prostate = tested on: DU-145 prostate
EKVX NSCLC = tested on: EKVX NSCLC
HCC-2998 colon = tested on: HCC-2998 colon
HCT-15 colon = tested on: HCT-15 colon
HL-60(TB) leukemia = tested on: HL-60(TB) leukemia
HOP-62 NSCLC = tested on: HOP-62 NSCLC
HOP-92 NSCLC = tested on: HOP-92 NSCLC
HS 578T breast = tested on: HS 578T breast
HT29 colon = tested on: HT29 colon
K-562 leukemia = tested on: K-562 leukemia
KM12 colon = tested on: KM12 colon
LOX IMVI melanoma = tested on: LOX IMVI melanoma
M14 melanoma = tested on: M14 melanoma
MALME-3M melanoma = tested on: MALME-3M melanoma
MDA-MB-231 breast = tested on: MDA-MB-231 breast
MDA-MB-435 = tested on: MDA-MB-435
MOLT-4 leukemia = tested on: MOLT-4 leukemia
NCI-H226 lung = tested on: NCI-H226 lung
NCI-H23 lung = tested on: NCI-H23 lung
NCI-H460 lung = tested on: NCI-H460 lung
NCI-H522 lung = tested on: NCI-H522 lung
NCI/ADR-RES ovarian = tested on: NCI/ADR-RES ovarian
OVCAR-3 ovarian = tested on: OVCAR-3 ovarian
OVCAR-4 ovarian = tested on: OVCAR-4 ovarian
OVCAR-5 ovarian = tested on: OVCAR-5 ovarian
OVCAR-8 ovarian = tested on: OVCAR-8 ovarian
PC-3 prostate = tested on: PC-3 prostate
RPMI-8226 leukemia = tested on: RPMI-8226 leukemia
RXF 393 renal = tested on: RXF 393 renal
SF-268 CNS = tested on: SF-268 CNS
SF-295 CNS = tested on: SF-295 CNS
SF-539 CNS = tested on: SF-539 CNS
SK-MEL-2 melanoma = tested on: SK-MEL-2 melanoma
SK-MEL-28 melanoma = tested on: SK-MEL-28 melanoma
SK-MEL-5 melanoma = tested on: SK-MEL-5 melanoma
SK-OV-3 ovarian = tested on: SK-OV-3 ovarian
SN12C renal = tested on: SN12C renal
SNB-19 CNS = tested on: SNB-19 CNS
SNB-75 CNS = tested on: SNB-75 CNS
SW-620 colon = tested on: SW-620 colon
TK-10 renal = tested on: TK-10 renal
U251 CNS = tested on: U251 CNS
UACC-257 melanoma = tested on: UACC-257 melanoma
UACC-62 melanoma = tested on: UACC-62 melanoma
UO-31 renal = tested on: UO-31 renal
A498 renal = tested on: A498 renal
HCT-116 colon = tested on: HCT-116 colon
IGROV1 ovarian = tested on: IGROV1 ovarian
MCF7 breast = tested on: MCF7 breast
SR leukemia = tested on: SR leukemia

S=C(SSC(=S)N1CCCCC1)N1CCCCC1 showed a GI50 (786-0 renal) of 14.5 µM, a TGI (786-0 renal) of 28.9 µM and a GI50 (A549 NSCLC) of 24.1 µM. The TGI (A549 NSCLC) was > 100 µM, the GI50 (ACHN renal) was 15.5 µM and the TGI (ACHN renal) was 41 µM. For the same molecule, the GI50 (BT-549 breast) was 16.6 µM, the TGI (BT-549 breast) was 44.6 µM and the GI50 (CAKI-1 renal) was 18 µM. The TGI (CAKI-1 renal) was > 100 µM, the GI50 (CCRF-CEM leukemia) was 8.18 µM and the TGI (CCRF-CEM leukemia) was 58.3 µM. For the same molecule, the GI50 (COLO 205 colon) was 11.8 µM, the TGI (COLO 205 colon) was 24.1 µM and the GI50 (DU-145 prostate) was 15.5 µM. The TGI (DU-145 prostate) was > 100 µM, the GI50 (EKVX NSCLC) was 28.4 µM and the TGI (EKVX NSCLC) was > 100 µM. For the same molecule, the GI50 (HCC-2998 colon) was 28.9 µM, the TGI (HCC-2998 colon) was > 100 µM and the GI50 (HCT-15 colon) was 16.5 µM. The TGI (HCT-15 colon) was 66.8 µM, the GI50 (HL-60(TB) leukemia) was 12.4 µM and the TGI (HL-60(TB) leukemia) was 51.3 µM. For the same molecule, the GI50 (HOP-62 NSCLC) was 28.4 µM, the TGI (HOP-62 NSCLC) was > 100 µM and the GI50 (HOP-92 NSCLC) was 30.7 µM. The TGI (HOP-92 NSCLC) was > 100 µM, the GI50 (HS 578T breast) was 21 µM and the TGI (HS 578T breast) was > 100 µM. For the same molecule, the GI50 (HT29 colon) was 14.3 µM, the TGI (HT29 colon) was 29 µM and the GI50 (K-562 leukemia) was 22.5 µM. For the same molecule, the TGI (K-562 leukemia) was > 100 µM, the GI50 (KM12 colon) was 13.9 µM and the TGI (KM12 colon) was 29 µM. It also gave a GI50 (LOX IMVI melanoma) of 5.64 µM, a TGI (LOX IMVI melanoma) of 18.1 µM and a GI50 (M14 melanoma) of 8.34 µM. For the same molecule, the TGI (M14 melanoma) was 22.9 µM, the GI50 (MALME-3M melanoma) was 16.4 µM and the TGI (MALME-3M melanoma) was 50.4 µM. It also gave a GI50 (MDA-MB-231 breast) of 15.2 µM, a TGI (MDA-MB-231 breast) of 41.2 µM and a GI50 (MDA-MB-435) of 22 µM. The TGI (MDA-MB-435) was > 100 µM, the GI50 (MOLT-4 leukemia) was 17.2 µM and the TGI (MOLT-4 leukemia) was 49.5 µM. The GI50 (NCI-H226 lung) was 34.6 µM, the TGI (NCI-H226 lung) was > 100 µM and the GI50 (NCI-H23 lung) was 16.3 µM. It also gave a TGI (NCI-H23 lung) of 36 µM, a GI50 (NCI-H460 lung) of 10.9 µM and a TGI (NCI-H460 lung) of 41.5 µM. For the same molecule, the GI50 (NCI-H522 lung) was 12.2 µM, the TGI (NCI-H522 lung) was 30.1 µM and the GI50 (NCI/ADR-RES ovarian) was 15.7 µM. For the same molecule, the TGI (NCI/ADR-RES ovarian) was 40.9 µM, the GI50 (OVCAR-3 ovarian) was 11.3 µM and the TGI (OVCAR-3 ovarian) was 24.2 µM. For the same molecule, the GI50 (OVCAR-4 ovarian) was 9.65 µM, the TGI (OVCAR-4 ovarian) was 48.9 µM and the GI50 (OVCAR-5 ovarian) was 14.6 µM. For the same molecule, the TGI (OVCAR-5 ovarian) was 27.9 µM, the GI50 (OVCAR-8 ovarian) was 16.2 µM and the TGI (OVCAR-8 ovarian) was 60.9 µM. The GI50 (PC-3 prostate) was 12.3 µM, the TGI (PC-3 prostate) was 51.4 µM and the GI50 (RPMI-8226 leukemia) was 12.9 µM. The TGI (RPMI-8226 leukemia) was 40.2 µM, the GI50 (RXF 393 renal) was 14.2 µM and the TGI (RXF 393 renal) was 35.8 µM. It also gave a GI50 (SF-268 CNS) of 17.4 µM, a TGI (SF-268 CNS) of 41.6 µM and a GI50 (SF-295 CNS) of 40.1 µM. The TGI (SF-295 CNS) was > 100 µM, the GI50 (SF-539 CNS) was 14.2 µM and the TGI (SF-539 CNS) was 32.6 µM. For the same molecule, the GI50 (SK-MEL-2 melanoma) was 25.1 µM, the TGI (SK-MEL-2 melanoma) was 67.8 µM and the GI50 (SK-MEL-28 melanoma) was 18.9 µM. The TGI (SK-MEL-28 melanoma) was 69.3 µM, the GI50 (SK-MEL-5 melanoma) was 4.34 µM and the TGI (SK-MEL-5 melanoma) was 59.8 µM. The GI50 (SK-OV-3 ovarian) was 48.4 µM, the TGI (SK-OV-3 ovarian) was > 100 µM and the GI50 (SN12C renal) was 17.2 µM. For the same molecule, the TGI (SN12C renal) was 50.4 µM, the GI50 (SNB-19 CNS) was 51 µM and the TGI (SNB-19 CNS) was > 100 µM. It also gave a GI50 (SNB-75 CNS) of 16.7 µM, a TGI (SNB-75 CNS) of 57.6 µM and a GI50 (SW-620 colon) of 13.4 µM. It also gave a TGI (SW-620 colon) of 26.9 µM, a GI50 (TK-10 renal) of 22.9 µM and a TGI (TK-10 renal) of 82.2 µM. For the same molecule, the GI50 (U251 CNS) was 12.2 µM, the TGI (U251 CNS) was 45.2 µM and the GI50 (UACC-257 melanoma) was 23.6 µM. The TGI (UACC-257 melanoma) was 82.9 µM, the GI50 (UACC-62 melanoma) was 16 µM and the TGI (UACC-62 melanoma) was 49.1 µM. The GI50 (UO-31 renal) was 19.2 µM and the TGI (UO-31 renal) was > 100 µM.
COc1ccc2cc1Oc1ccc(cc1)C[C@@H]1c3cc(c(OC)cc3CCN1C)Oc1c(OC)c(OC)cc3c1[C@H](C2)N(C)CC3 showed a TGI (786-0 renal) of 89.6 µM, a TGI (A498 renal) of 42.5 µM and a TGI (ACHN renal) of 28.5 µM. The TGI (CCRF-CEM leukemia) was 51.8 µM, the TGI (HCC-2998 colon) was 25.8 µM and the TGI (HCT-116 colon) was > 100 µM. For the same molecule, the TGI (HCT-15 colon) was 25.1 µM, the TGI (HL-60(TB) leukemia) was 30.8 µM and the TGI (HS 578T breast) was 42.3 µM. For the same molecule, the TGI (IGROV1 ovarian) was 72.9 µM, the TGI (K-562 leukemia) was 23 µM and the TGI (M14 melanoma) was 37.1 µM. The TGI (MCF7 breast) was 31 µM, the TGI (MDA-MB-231 breast) was 29.9 µM and the TGI (NCI-H23 lung) was 34.1 µM. For the same molecule, the TGI (NCI-H460 lung) was 29.7 µM, the TGI (NCI-H522 lung) was 33.4 µM and the TGI (OVCAR-3 ovarian) was > 100 µM. The TGI (OVCAR-4 ovarian) was 55.6 µM, the TGI (OVCAR-8 ovarian) was 35.6 µM and the TGI (RXF 393 renal) was 13.7 µM. It also gave a TGI (SF-268 CNS) of 60.8 µM, a TGI (SF-295 CNS) of 34.2 µM and a TGI (SF-539 CNS) of 23.6 µM. For the same molecule, the TGI (SK-MEL-5 melanoma) was 25.1 µM, the TGI (SK-OV-3 ovarian) was > 100 µM and the TGI (SNB-19 CNS) was 50 µM. For the same molecule, the TGI (SNB-75 CNS) was 27.3 µM, the TGI (SR leukemia) was 9.91 µM and the TGI (TK-10 renal) was 39.5 µM. For the same molecule, the TGI (U251 CNS) was > 100 µM and the TGI (UACC-257 melanoma) was 28.9 µM.
